Experimental data from patent US20250268824A1, “METHODS FOR MAKING REDUCED PARTICLE SIZE COMPOUNDS” (TaP Pharmaceuticals AG, priority 2024, published 2025).

Assay: Miscibility of unprocessed prednisolone acetate with water
Type: physicochemical
Details: floats on the surface of water
Method: (§1) API Particle size reduction. The API, prednisolone acetate, of the present invention is destined for inclusion in ophthalmic formulation and characterized by a target PSD of: D10≤0.15 μM, D50≤0.75 μM, D90≤2.5 μM. […] Addition of surfactant (e.g. polysorbate) to aqueous solution was required to form slurries of prednisolone acetate suitable for use as vehicles in particle size reduction experiments that employed bead milling and high-pressure homogenization.
as §1, with “and in some embodiments” for “and”, “D10≤1.0” for “D10≤0.15”, “D50≤2.2” for “D50≤0.75”, “D90≤4.5” for “D90≤2.5”, “that” for “that employed bead milling and”

miscibility with water: immiscible with water
Compound: CC(=O)OCC(=O)[C@@]1(O)CC[C@H]2[C@@H]3CCC4=CC(=O)C=C[C@]4(C)[C@H]3[C@@H](O)C[C@@]21C [prednisolone acetate]
